Experimental data: patent EP0012271A1, “Prednisone derivatives, process for their production and pharmaceutical preparations containing these compounds” (SCHERING AKTIENGESELLSCHAFT, priority 1978, dated 1980)

Assays:
Pfotenödems = assay: Undesired systemic activity: Mycobacterium butyricum-induced paw oedema in rats, oral administration; assay type: in vivo, SPF-Ratten; conditions: Rattus norvegicus, dose giving 50% reduction of paw oedema volume, measured 24 h after dosing, higher value = less undesired systemic effect, read-out: Systemische Wirksamkeit ED50
From the text: (§1) Die Prednison-Derivate der allgemeinen Formel I gemäß Anspruch 1 zeichnen sich gegenüber dem in handelsüblichen pharmazeutischen Präparate befindlichen, strukturanalogen Kortikoid 17α-Butyryloxy-21-chlor-9α-fluor-16β-methyl- l,4-pregnadien-3,11,20-trion durch eine günstigere Dissoziation zwischen erwünschter topischer antiinflammatorischer Wirksamkeit und unerwünschter systemischer Nebenwirkung aus, wie folgende pharmakologische Untersuchungen zeigen: • a) Ermittlung der topischen antiinflammatorischen Wirksamkeit: Die Untersuchungen werden an je 8 gesunden Probanden beider Geschlechter durchgeführt, die in den letzten zwei Wochen keine lokale Corticosteroidbehandlung erhalten hatten. Nach dem Entfernen des Stratum corneum bis zum Stratum lucidum auf dem Rücken der Probanden (20 - 40 Tesafilm-Abrisse) werden je o,l g der Zubereitung auf 4 cm^2 große Felder ohne Okklusionsverband aufgetragen. Um zu vermeiden, daß die gleiche Zubereitung jeweils auf identische Hautreale appliziert wird, wird in rotierender Folge aufgetragen. […]

Vasokonstriktion = assay: Topical anti-inflammatory activity: vasoconstriction test on tape-stripped back skin of healthy volunteers, visual grading 1-5 compared with DFV; assay type: in vivo, gesunden Probanden; conditions: Konz. der Salbe, mean of 8 volunteers, positive = better than DFV, negative = worse
From the text: as §1

CCCC(=O)O[C@]1(C(=O)CCl)CC[C@H]2[C@@H]3CCC4=CC(=O)C=C[C@]4(C)[C@@]3(F)C(=O)C[C@@]21C [Nr. 3, 17α-Butyryloxy-21-chlor-9α-fluor-1,4-pregnadien-3,11,20-trion]
ED50 (Pfotenödems): 30 mg/kg | Topische Wirksamkeit, Wirkungsgrad DFV - Wirkungsgrad Substanz (Vasokonstriktion; Beobachtungszeit 4 h): -0,1 | Topische Wirksamkeit, Wirkungsgrad DFV - Wirkungsgrad Substanz (Vasokonstriktion; Beobachtungszeit 8 h): 0,0
